The values that follow come from patent publication US20250114462A1, “HYDROPHILIC FUNCTIONALIZED PARTICLES IN THE DELIVERY OF HYDROPHOBIC DRUGS” (NEW JERSEY INSTITUTE OF TECHNOLOGY, priority 2023, published 2025).

The nature of the data set: In vitro dissolution profile (USP-42 paddle method). It counts as physicochemical. Conditions: for 50% dissolution time (T50): composites with 0.5 to 1.0% of HFP. The method, then: Dissolution measurements were carried out using USP-42 paddle method with Symphony 7100 Distek dissolution instrument. Agilent 8453 model UV-Visible spectrophotometer was used at a wavelength at 295.0 nm for the reference drug Griseofulvin standard absorbance measurements that calibrated to measure the formulation polymer incorporated drugs concentration and dissolution percentage estimation.

Molecules are shown by their SMILES.

Regarding `COC1=CC(=O)C[C@@H](C)[C@]12Oc1c(Cl)c(OC)cc(OC)c1C2=O` [Griseofulvin (GF), griseofulvin], the Initial dissolution rate is 110.3 µg/min and the “50% dissolution time (T50)” value amounted to 40.

The molecule `COc1ccc(-n2nc(C(N)=O)c3c2C(=O)N(c2ccc(N4CCCCC4=O)cc2)CC3)cc1` [Apixaban (APX), apixaban] gave an Initial dissolution rate of 74.3 µg/min.

Consider `CC(=O)O[C@]1(C(C)=O)CC[C@H]2[C@@H]3C=C(C)C4=CC(=O)CC[C@]4(C)[C@H]3CC[C@@]21C` [Megestrol Acetate (MA), megestrol acetate], for which the Initial dissolution rate was 84.1 µg/min and the “50% dissolution time (T50)” value stood at 138.
